# According to ChEMBL document CHEMBL6071134, “Novel bibenzyl compound Ae exhibits anti-agiogenic activity in HUVECs in vitro and zebrafish in vivo” (Bioorg Med Chem, 2024):
# Active and inactive are the calls of the source. The rule behind the calls is not given here.
# Tests used:
# HUVEC [1] = test: Anti-angiogenesis activity in HUVEC cells assessed as appearance of incomplete tubule network structure at 0.25 to 2 uM incubated for 12 hrs by inverted microscopic analysis; type: functional, cell-based; settings: Homo sapiens, dose 0.25-2 µM
# Danio rerio [2] = organism: Danio rerio; test: Antiangiogenic activity against transgenic zebrafish model assessed as inhibition of inter-segmental blood vessels of embryo at 0.625 uM measured after 72 hrs post fertilization by fluorescence microscopy based analysis; type: functional, organism-based
# HUVEC [3] = test: Inhibition of cell migration in HUVEC cells at 0.25 uM by crystal violet staining based Boyden chamber assay; type: functional; settings: Homo sapiens
# HUVEC [4] = test: Inhibition of cell migration in HUVEC cells at 0.5 uM by crystal violet staining based Boyden chamber assay relative to control; type: functional; settings: Homo sapiens
# HUVEC [5] = test: Anti-angiogenesis activity in HUVEC cells assessed as appearance of shorter tubule length at 0.25 to 2 uM incubated for 12 hrs by inverted microscopic analysis; type: functional, cell-based; settings: Homo sapiens, dose 0.25-2 µM
# HUVEC [6] = test: Inhibition of cell invasion in HUVEC cells measured after 24 hrs by crystal violet staining based inverted fluorescence microscopy analysis; type: functional; settings: Homo sapiens, dose 0.25-2 µM
# HUVEC [7] = test: Inhibition of cell invasion in HUVEC cells assessed as reduction in number of invading cells at 2 uM measured after 24 hrs by crystal violet staining based inverted fluorescence microscopy analysis relative to control; type: functional; settings: Homo sapiens
# HUVEC [8] = test: Inhibition of cell migration in HUVEC cells at 2 uM by crystal violet staining based Boyden chamber assay relative to control; type: functional; settings: Homo sapiens
# Danio rerio [9] = organism: Danio rerio; test: Anti-angiogenesis activity in zebrafish embryo assessed as downregulation of kdr1 mRNA expression at 0.5 to 5 uM measured after 24 hrs by qRT-PCR analysis; type: functional, organism-based; settings: dose 0.5-5 µM
# HUVEC [10] = test: Inhibition of cell migration in HUVEC cells at 0.25 uM by crystal violet staining based Boyden chamber assay relative to control; type: functional; settings: Homo sapiens
# HUVEC [11] = test: (§1) Antiproliferative activity against HUVEC cells measured after 48 hrs by CCK-8 method; type: toxicity, cell-based; settings: human, huvec, 48 h; dose 0.062-16 µM
# [12] = as §1; type: toxicity, cell-based; settings: human, HUVEC cells
# Danio rerio [13] = organism: Danio rerio; test: Antiangiogenic activity against transgenic zebrafish model assessed as inhibition of inter-segmental blood vessels of embryo measured after 72 hrs post fertilization by fluorescence microscopy based analysis; type: functional, organism-based; settings: dose 0.625-2.5 µM
# [14] = Toxicity in transgenic zebrafish at 2.5 uM measured after 72 hrs; parameters: species or system Danio rerio; settings: in vivo
# HUVEC [15] = test: Inhibition of cell migration in HUVEC cells assessed as […] in wound closure area at 0.25 to 2 uM incubated for 12 hrs by crystal violet staining based wound healing assay relative to DMSO; type: functional; settings: Homo sapiens, dose 0.25-2 µM
# HUVEC [16] = test: Inhibition of cell migration in HUVEC cells at 1 uM by crystal violet staining based Boyden chamber assay relative to control; type: functional; settings: Homo sapiens
# HUVEC [17] = test: Inhibition of cell migration in HUVEC cells incubated for 12 hrs by crystal violet staining based wound healing assay; type: functional; settings: Homo sapiens, dose 0.25-2 µM
# Danio rerio [18] = organism: Danio rerio; test: Anti-angiogenesis activity in zebrafish embryo assessed as effect on flt-1 mRNA expression at 0.5 to 5 uM measured after 24 hrs by qRT-PCR analysis; type: functional, organism-based; settings: dose 0.5-5 µM
# Danio rerio [19] = organism: Danio rerio; test: Anti-angiogenesis activity in zebrafish embryo assessed as effect on […]-mRNA expression at 0.5 to 5 uM measured after 24 hrs by qRT-PCR analysis; type: functional, organism-based; settings: dose 0.5-5 µM
# HUVEC [20] = test: Anti-angiogenesis activity in HUVEC cells assessed as appearance of broken tubule network structure at 0.25 to 2 uM incubated for 12 hrs by inverted microscopic analysis; type: functional, cell-based; settings: Homo sapiens, dose 0.25-2 µM
# Danio rerio [21] = organism: Danio rerio; test: Anti-angiogenesis activity in zebrafish embryo assessed as downregulation of tek mRNA expression at 0.5 to 5 uM measured after 24 hrs by qRT-PCR analysis; type: functional, organism-based; settings: dose 0.5-5 µM
# HUVEC [22] = test: Anti-angiogenesis activity in HUVEC cells assessed as reduction in total tube length at 2 uM incubated for 12 hrs by inverted microscopic analysis relative to control; type: functional, Homo sapiens; parameters: scale not given: the % may be the effect or the level left
# Danio rerio [23] = organism: Danio rerio; test: Anti-angiogenesis activity in zebrafish embryo assessed as effect on fgfr2 mRNA expression at 0.5 to 5 uM measured after 24 hrs by qRT-PCR analysis; type: functional, organism-based; settings: dose 0.5-5 µM
# HUVEC [24] = test: Anti-angiogenesis activity in HUVEC cells assessed as reduction in total tube length at 1 uM incubated for 12 hrs by inverted microscopic analysis relative to control; type: functional, Homo sapiens; parameters: scale not given: the % may be the effect or the level left
# Danio rerio [25] = organism: Danio rerio; test: Anti-angiogenesis activity in zebrafish embryo assessed as downregulation of kdr mRNA expression at 0.5 to 5 uM measured after 24 hrs by qRT-PCR analysis; type: functional, organism-based; settings: dose 0.5-5 µM
# Danio rerio [26] = organism: Danio rerio; test: Anti-angiogenesis activity in zebrafish embryo assessed as downregulation of ang-2 mRNA expression at 0.5 to 5 uM measured after 24 hrs by qRT-PCR analysis; type: functional, organism-based; settings: dose 0.5-5 µM
# HUVEC [27] = test: Anti-angiogenesis activity in HUVEC cells assessed as appearance of few branches in tubule network structure at 0.25 to 2 uM incubated for 12 hrs by inverted microscopic analysis; type: functional, cell-based; settings: Homo sapiens, dose 0.25-2 µM
# Danio rerio [28] = organism: Danio rerio; test: Anti-angiogenesis activity in zebrafish embryo assessed as effect on fgf2 mRNA expression at 0.5 to 5 uM measured after 24 hrs by qRT-PCR analysis; type: functional, organism-based; settings: dose 0.5-5 µM
# Danio rerio [29] = organism: Danio rerio; test: Antiangiogenic activity against transgenic zebrafish model assessed as inhibition of inter-segmental blood vessels of embryo at 2.5 uM measured after 72 hrs post fertilization by fluorescence microscopy based analysis relative to control; type: functional; parameters: scale not given: the % may be the effect or the level left
smiles,measurement,setting,value
COc1cc(CCc2ccccc2Cl)cc(OC)c1O,Activity,HUVEC [1],Active
same,Activity,Danio rerio [2],Active
same,inhibition,HUVEC [3],Active
same,inhibition at 0.5 µM,HUVEC [4],~64.4%
same,Activity,HUVEC [5],Active
same,inhibition,HUVEC [6],Dose-Dependent Effect
same,inhibition at 2 µM,HUVEC [7],17.4%
same,inhibition at 2 µM,HUVEC [8],~78.5%
same,Activity,Danio rerio [9],Active
same,inhibition at 0.25 µM,HUVEC [10],~37.2%
same,Activity,HUVEC [11],Dose-Dependent Effect
same,IC50 at 48 h,[12],1700 nM
same,Activity,Danio rerio [13],Dose-Dependent Effect
same,Activity,[14],Toxic
same,inhibition,HUVEC [15],Active
same,inhibition at 1 µM,HUVEC [16],~71.3%
same,inhibition,HUVEC [17],Dose-Dependent Effect
same,Activity,Danio rerio [18],inactive
same,Activity,Danio rerio [19],inactive
same,Activity,HUVEC [20],Active
same,Activity,Danio rerio [21],Active
same,Activity,HUVEC [22],22.6%
same,Activity,Danio rerio [23],inactive
same,Activity,HUVEC [24],38.7%
same,Activity,Danio rerio [25],Active
same,Activity,Danio rerio [26],Active
same,Activity,HUVEC [27],Active
same,Activity,Danio rerio [28],inactive
same,Activity,Danio rerio [29],100%
